Laboratory results as given in the NIST ThermoML archive (doi:10.1007/s10765-012-1383-x).

Details: Fluid (supercritical or subcritical phases), Bellows volumetry

CCC [propane]
mass density [kg/m3]
Details | 360 K | 400 K | 440 K | 500 K | 550 K | 600 K
50000 kPa | 520.66 | 488.73 | 457.63 | 413.41 | 380.04 | 349.68
60000 kPa | 532.63 | 503.01 | 474.47 | 434.04 | 403.51 | 375.39
70000 kPa | 543.15 | 515.19 | 488.72 | 450.94 | 422.59 | 396.1
80000 kPa | 552.56 | 525.98 | 500.95 | 465.53 | 438.76 | 413.71
90000 kPa | 560.92 | 535.66 | 511.84 | 477.92 | 452.84 | 428.88
100000 kPa | 568.67 | 544.28 | 521.48 | 489.12 | 464.72 | 442.26
120000 kPa | 582.46 | 559.78 | 538.35 | 508.54 | 485.88 | 465.07
140000 kPa | 594.1 | 573.12 | 552.91 | 524.91 | 503.64 | 484.26
160000 kPa | 605.2 | 584.9 | 565.72 | 539.2 | 518.92 | 500.33
180000 kPa | 614.83 | 595.54 | 577.17 | 551.84 | 532.53 | 514.78
200000 kPa | 624.04 | 605.48 | 587.69 | 563.13 | 544.69 | 527.68

CC(C)C [2-methylpropane]
mass density [kg/m3]
Details | 360 K | 400 K | 440 K | 500 K | 550 K | 600 K
50000 kPa | 568.86 | 539.91 | 512.43 | 472.16 | 440.41 | 410.52
60000 kPa | 579.25 | 552.31 | 526.93 | 489.95 | 460.74 | 433.26
70000 kPa | 588.53 | 563.06 | 539.33 | 504.87 | 477.5 | 451.97
80000 kPa | 597.04 | 572.73 | 550.28 | 517.77 | 492.04 | 467.84
90000 kPa | 604.5 | 581.56 | 559.97 | 529.04 | 504.6 | 481.73
100000 kPa | 611.74 | 589.43 | 568.96 | 539.24 | 515.83 | 494.03
120000 kPa | 624.36 | 603.57 | 584.57 | 557 | 535.44 | 515.09
140000 kPa | 635.51 | 615.95 | 598.12 | 572.25 | 551.94 | 532.7
160000 kPa | 645.68 | 627.09 | 610.19 | 585.63 | 566.41 | 548.14
180000 kPa | 655.03 | 637.21 | 621.17 | 597.32 | 579.21 | 561.73
200000 kPa | 663.47 | 646.22 | 631.03 | 607.94 | 590.74 | 573.91

CCCC [butane]
mass density [kg/m3]
Details | 360 K | 400 K | 440 K | 500 K | 550 K | 600 K
50000 kPa | 585.47 | 556.11 | 527.49 | 485.76 | 452.74 | 421.67
60000 kPa | 595.41 | 567.8 | 541.19 | 502.86 | 472.65 | 444.04
70000 kPa | 604.19 | 578.11 | 552.99 | 517.01 | 489.04 | 462.25
80000 kPa | 612.02 | 587.28 | 563.51 | 529.24 | 503.05 | 477.92
90000 kPa | 619.58 | 595.58 | 572.93 | 540.26 | 515.43 | 491.53
100000 kPa | 626.29 | 603.28 | 581.43 | 550.18 | 526.47 | 503.41
120000 kPa | 638.57 | 617 | 596.67 | 567.64 | 545.49 | 524.18
140000 kPa | 649.66 | 629.05 | 609.84 | 582.51 | 561.8 | 541.56
160000 kPa | 659.24 | 639.75 | 621.49 | 595.57 | 575.61 | 556.81
180000 kPa | 668.57 | 649.69 | 632.12 | 607.21 | 588.11 | 570.23
200000 kPa | 676.57 | 658.6 | 641.85 | 617.68 | 599.35 | 582.23
